Experimental data taken from patent US20100048714A1, “Methods and Compositions Related to Inhibition of Ceramide Synthesis” (University of Utah Research Foundation, priority 2006, published 2010).

Tests used:
[1] = tested on: Sprague dawley rats; assay: Hyperinsulinemic euglycemic clamps of dexamethasone treated rats; assay type: in vivo, rat; conditions: for Insulin, During Clamp / FFA / Glucose, Before Clamp / Insulin, Before Clamp: plasma, mean ± standard error, n=4; for Insulin, During Clamp: steady state; for FFA: Before Clamp by layout
Description: (§1) (A) Sprague-Dawley rats were treated with myriocin (300 μg/Kg, IP, solid bars) or saline (open bars) for two weeks prior to giving administering dexamethasone (40 μg/Kg, IP) or vehicle (5% ethanol) every 12 hours for 36 hours. Animals were euthanized by CO2 inhalation, livers were removed, and ceramide levels were assessed as described in SOM-Methods. Shown are mean ceramide levels+/−S.E.M, n=6 per group. The asterisk denotes that the sample was statistically different from vehicle-treated controls, p<0.05, student's t-test. (B) Livers were obtained as in A, above, and protein and mRNA were extracted as described in SOM-Methods. Levels of transcripts (solid bars) encoding serine palimitoyl transferase isoforms 1 and 2 (SPT1 and SPT2), dihydroceramide synthases (DCS) TL1, UOG, and TRH3, glucosylceramide synthase (GCS), and acid ceramidase (AC) transcripts were obtained by reverse-transcriptase polymerase chain reaction, normalized to β-actin. SPT2 protein levels (white bars) were detected by immunoblotting with an antibody from Cayman Chemicals (Ann Arbor, Mich.) and quantified on a Kodak Image Station 2000R (Rochester, N.Y.). Data represent the fold-change in transcript or protein in dexamethasone-treated animals relative to vehicle controls. […] (C and D) Rats were challenged with glucose (1 g/kg) given intraperitoneally (IP) following treatment with dexamethasone (squares), ethanol carrier (triangles), myriocin (open shapes), or saline (solid shapes) as in A, above. Tail vein blood (3 μl) was sampled for glucose (C)(using the Glucometer Elite from Bayer Corp., Tarrytown, N.Y.) or insulin (D) (using an Elisa kit from Linco Diagnostics, Springfield, Mo.). […] (E-G) Hyperinsulinemic euglycemic clamps were performed on animals (n=4 per group) treated as in A, above, as described in SOM-Methods. Data from animals receiving myriocin are depicted in solid bars. (E) The glucose infusion rate required to maintain normal glycemia during insulin infusion ([…]) was calculated as the average infusion rate during the 60 minute steady state. (F) Hepatic glucose output was estimated by the disappearance of [^14C] glucose from a bolus dose given during the steady state minus the glucose infusion rate. (G) Disappearance of a bolus dose of [^3H] 2-deoxyglucose from the bloodstream was used to estimate the rate of whole body glucose uptake.
(§2) To definitively evaluate effects on insulin sensitivity, as well as to distinguish whether the treatment protocols differentially affected glucose uptake in skeletal muscle or hepatic output by the liver, hyperinsulinemic-euglycemic clamps with D-[U-^14C] glucose and 2-deoxy-D-[2,6-^3H] glucose tracers were performed.
Clamps were performed in conscious unrestrained animals using swivels and tethers (Instech, Plymouth Meeting, Pa.) to allow uninterrupted movement of the animal without disruption of infusion lines. Hyperinsulinemia was initiated by intravenous infusion of insulin (10 mU/kg/min at a flow rate of 4 μL/min). Blood was sampled from arterial lines in 7 minute intervals and analyzed with a Beckman Glucose analyzer II (Beckman Coulter, Fullerton, Calif.). Euglycemia was maintained by variable infusion of 20% dextrose. Steady state was achieved approximately 90 minutes after initiating hyperinsulinemia and maintained for 30 minutes. Glucose infusion rates were calculated as the average glucose infusion rate during the 30 minute steady state. Additional blood samples were taken before initiating hyperinsulinemia and at the end of the clamp for analysis of insulin and free fatty acids.

[2] = tested on: Sprague-Dawley rats; assay: Glucose tolerance test (glucose 1 g/kg IP) in dexamethasone-treated rats; assay type: in vivo, rat
Description: as §1
Tail vein blood (3 μl) was sampled for glucose determination (Hitachi 911 clinical chemistry analyzer, Roche, Indianapolis, Ind. or Glucometer Elite, Bayer Corp., Tarrytown, N.Y.)-30 minutes, immediately before and 15, 30, 45, 60, 90, and 120 min after glucose administration. Additionally, serum was collected and analyzed for insulin by Elisa (Linco Diagnostics, Springfield, Mo.).

[3] = tested on: Sprague-Dawley rats; assay: Liver ceramide and ceramide-enzyme expression in dexamethasone-treated rats; assay type: in vivo, rat; conditions: dexamethasone 40 μg/Kg IP every 12 hours for 36 hours; myriocin 300 μg/Kg IP for two weeks prior
Description: (A) Sprague-Dawley rats were treated with myriocin (300 μg/Kg, IP, solid bars) or saline (open bars) for two weeks prior to giving administering dexamethasone (40 μg/Kg, IP) or vehicle (5% ethanol) every 12 hours for 36 hours. Animals were euthanized by CO2 inhalation, livers were removed, and ceramide levels were assessed as described in SOM-Methods. Shown are mean ceramide levels+/−S.E.M, n=6 per group. The asterisk denotes that the sample was statistically different from vehicle-treated controls, p<0.05, student's t-test. (B) Livers were obtained as in A, above, and protein and mRNA were extracted as described in SOM-Methods. Levels of transcripts (solid bars) encoding serine palimitoyl transferase isoforms 1 and 2 (SPT1 and SPT2), dihydroceramide synthases (DCS) TL1, UOG, and TRH3, glucosylceramide synthase (GCS), and acid ceramidase (AC) transcripts were obtained by reverse-transcriptase polymerase chain reaction, normalized to β-actin. SPT2 protein levels (white bars) were detected by immunoblotting with an antibody from Cayman Chemicals (Ann Arbor, Mich.) and quantified on a Kodak Image Station 2000R (Rochester, N.Y.). […] (E) The glucose infusion rate required to maintain normal glycemia during insulin infusion (4mU/kg/min) was calculated as the average infusion rate during the 60 minute steady state. […]

[4] = tested on: male Sprague Dawley Rats; assay: Insulin tolerance test in dexamethasone-treated rats; assay type: in vivo, rat; conditions: dexamethasone 400 μg/kg IP 24 and 12 hours prior; myriocin 0.3 mg/kg/2 days for 1 week
Description: Following an overnight fast, insulin was injected (20 U, IP) and whole blood glucose was determined by glucometer. Values are presented as the ratio of measured blood glucose to fasting blood glucose.
as §2

[5] = tested on: DIO mice; assay: Myriocin in non-diabetic insulin resistance model, DIO mice; assay type: in vivo
[6] = tested on: soleus muscles; assay: Isolated soleus muscle strips incubated with free fatty acids; conditions: cycloserine 1 mM or myriocin 10 μM
[7] = tested on: Zucker Diabetic Fatty (ZDF) rats; assay: Myriocin treatment of Zucker Diabetic Fatty rats; assay type: in vivo, rat
[8] = tested on: Zucker fa/fa rat; assay: Myriocin in non-diabetic insulin resistance model, Zucker fa/fa rat; assay type: in vivo
[9] = clamp, dexamethasone with or without myriocin pretreatment
[10] = Dexamethasone-treated (Saline or Myriocin)
[11] = dexamethasone with or without myriocin pretreatment
[12] = glucose challenge 1 g/kg IP, n=6 per group, p<0.05
[13] = treatment starting at week 8, vs vehicle

**Q.** `CCCCCCC(=O)CCCCCC/C=C/C[C@@H](O)[C@H](O)[C@@](N)(CO)C(=O)O` [Myriocin] was tested. Which “2-deoxyglucose uptake into skeletal muscle / insulin resistance in skeletal muscle” value [1, 9] did it give?
**A.** partially blocked

**Q.** What about the “insulin-induced suppression of hepatic glucose output” value [1, 9] of the same compound?
**A.** completely prevented

**Q.** And the “insulin-responsiveness (glucose infusion rate, hepatic glucose output, whole body glucose uptake; FIG. 1E-G)” value ([1]; clamp, n=4 per group, p<0.05)?
**A.** significantly restored insulin-responsiveness

**Q.** What about the “Insulin, During Clamp” value [1, 10] of the same compound?
**A.** 5.4 ± 1.4 ng/mL

**Q.** And the “Insulin, During Clamp” value ([1]; Dexamethasone: Control)?
**A.** 6.4 ± 0.5 ng/mL

**Q.** And the FFA [1, 10]?
**A.** 176 ± 34 µM

**Q.** What about the FFA ([1]; Dexamethasone: Control) of the same compound?
**A.** 258 ± 29 µM

**Q.** And the “Glucose, Before Clamp” value [1, 10]?
**A.** 137.0 ± 2.1 mg/dL

**Q.** And the “Insulin, Before Clamp” value [1, 10]?
**A.** 2.34 ± 0.49 ng/mL

**Q.** What about the “Glucose, Before Clamp” value ([1]; Dexamethasone: Control) of the same compound?
**A.** 123.6 ± 7.7 mg/dL

**Q.** And the “Insulin, Before Clamp” value ([1]; Dexamethasone: Control)?
**A.** 2.05 ± 0.25 ng/mL

**Q.** What about the “glucose disposal / glucose intolerance in glucose tolerance test” value [2, 11] of the same compound?
**A.** significantly negated glucocorticoid-induced glucose intolerance

**Q.** What about the “insulin levels during glucose tolerance test” value [2, 11] of the same compound?
**A.** normalized circulating insulin concentrations

**Q.** And the “area under the curve, glucose” value [2, 12]?
**A.** significantly lowered the area under the curve

**Q.** And the “area under the curve, insulin” value [2, 12]?
**A.** significantly lowered the area under the curve

**Q.** What about the “ceramide levels in the liver” value [3] of the same compound?
**A.** Reducing ceramide levels

**Q.** What about the “insulin sensitivity in insulin tolerance tests” value [4] of the same compound?
**A.** fully negated

**Q.** And the glucose homeostasis [5]?
**A.** improved glucose homeostasis

**Q.** And the insulin levels [5]?
**A.** lowered insulin levels

**Q.** What about the “linoleate effects on 2-DOG uptake” value ([6]; 1 mM linoleate) of the same compound?
**A.** did not alter linoleate effects

**Q.** What about the “linoleate effects on DAG accumulation” value ([6]; 1 mM linoleate) of the same compound?
**A.** did not alter linoleate effects

**Q.** And the “DAG in palmitate-treated muscles” value ([6]; 1 mM palmitate)?
**A.** without affecting DAG

**Q.** What about the “palmitate effect on insulin-stimulated 2-deoxyglucose uptake” value ([6]; 1 mM palmitate) of the same compound?
**A.** completely negated the antagonistic effects of palmitate

**Q.** What about the palmitate-induced ceramide accumulation ([6]; 1 mM palmitate) of the same compound?
**A.** prevented palmitate-induced ceramide accumulation

**Q.** And the “age until which the improvement in blood glucose persisted” value ([7]; ZDF rats)?
**A.** at least 16 weeks

**Q.** What about the “ceramides in liver, soleus and serum” value ([7]; ZDF rats) of the same compound?
**A.** reduced levels of the sphingolipid in all these tissues

**Q.** What about the tolerability ([7]; ZDF rats and lean controls, myriocin for up to 6 weeks) of the same compound?
**A.** well-tolerated

**Q.** What about the glucose homeostasis ([7]; male ZDF rats, myriocin 0.3 mg/kg IP every other day (FIG. 4 legend)) of the same compound?
**A.** markedly improved glucose homeostasis

**Q.** And the side effects ([7]; rat, in vivo)?
**A.** no apparent side effects

**Q.** And the onset of diabetes ([7]; treatment starting at week 8)?
**A.** prevented the onset of diabetes

**Q.** And the plasma glucose levels [7, 13]?
**A.** reduced

**Q.** What about the triglyceride levels [7, 13] of the same compound?
**A.** reduced

**Q.** What about the glucose homeostasis [8] of the same compound?
**A.** improved glucose homeostasis

**Q.** And the insulin levels [8]?
**A.** lowered insulin levels
